# US11234982B2, “Methods for treating ocular surface pain” (NOVARTIS AG, priority 2019, dated 2022)
# Several values for one entry are separate records, joined by “and”; a condition that tells them apart may be missing. Identical values can stand only once. Entries after “also recorded” stand apart in the source; their conditions may differ.
# What was measured:
# [1] = test system: patients undergoing photorefractive keratectomy (PRK) surgery; experiment: PRK study: ocular safety assessments and vital signs; assay type: in vivo, human
# Method: The study was a proof of concept, double-masked, randomized, vehicle-controlled study of compound I administered as eye drops in addition to standard of care treatment in patients after PRK surgery. PRK surgery was performed as an outpatient procedure under topical anesthesia with removal of the corneal epithelium to expose the stroma for the laser ablation. Compound I dosing was as single eye drop of 2.5% (25 mg/ml, 0.925 mg/drop), administered four times daily (every six hours) in one eye from immediate post-op (time 0) to last dose at 72 hours.
# (§1) Adverse events and serious adverse events included an assessment of both systemic and ocular assessments. Systemic safety assessments included regular assessments of height and weight, vital signs, reporting medication errors including misuse/abuse, pregnancy reporting and early phase safety monitoring. The misuse/abuse, pregnancy reporting and early phase safety monitoring were not assessed for the study. Ocular safety assessments included the following: • Best-corrected visual acuity (BCVA) and uncorrected visual acuity (UCVA): Was measured at each visit using an ETDRS visual acuity chart at 4 meters (13 feet) or 1 meter (for patients that cannot read the 4 meter chart). The BCVA scoring was done based on the number of correctly read letters plus 30. If visual acuity was so poor that the patient could not read any of the largest letters at 1 meter, count fingers and hand movement vision and light perception was tested. • Intraocular Pressure (TOP): IOP measurements were conducted with applanation tonometry or Tonopen. • Dilated fundus exam: The dilated fundus examination included ophthalmoscopic assessments of the vitreous, retina/macula/choroid, and optic nerve. Evaluations for retinal tear/detachment, retinal hemorrhage, vitreous hemorrhage density, vitreous haze grading and abnormal findings were done and scored according to grading criteria. • Ocular hyperemia: Conjunctival redness of the bulbar conjunctiva in each eye at the slit lamp according to the McMonnies redness scale was graded. […] By adjusting the calibrated slit beam width and height, the maximum horizontal (wound width) and vertical dimensions (wound height) of the surgical epithelial wound was estimated. The evaluation was performed until wound closure and report of wound size as 0 horizontal and 0 vertical dimensions. • Slit-lamp biomicroscopy: Ocular signs (eyelids/conjunctiva, cornea, lens, and iris/anterior chamber) was assessed in both eyes by slit lamp biomicroscopy according to the grading criteria. • Blink rate: A blink was defined as a bilateral paroxysmal closure of the eyelids (duration<1 second) in the absence of a provoking external stimulus. Each blink assessment lasted for 2 min (or as close to 2 minutes as possible with minimum time 1 minute) and the obtained blink rate was averaged to calculate blink rate in blinks/min. • Tear production (Schirmer's test without anesthesia): The test was performed without anesthetic in both eyes simultaneously. Tear secretion was measured in millimeters of the length of strip wetted by tears. […] The strip was wetted with 1 drop of sterile saline and flicked to remove excess saline. The patient blinked several times to ensure dispersion of the dye throughout the tear film prior to grading on a scale of 0-3 (0=Normal, No staining; 1=Mild, Superficial stippling micropunctate staining; 2=Moderate, Macropunctate staining with some coalescent areas and 3=Severe, Numerous coalescent macropunctate areas and/or patches) for each of 5 zones (central plus 4 quadrants).
# [2] = test system: corneal epithelial wound after PRK surgery; experiment: PRK study: size of epithelial defect by slit lamp exam (wound healing); assay type: in vivo, human
# Description: as §1
# Size of epithelial defect by slit lamp exam: In order to assess the rate of wound healing after administration of compound I, the size of the epithelial defect in both compound I and Vehicle treated populations was measured. The elliptical area of epithelial wound size was calculated as follows: […], from the width and height of the epithelial defect measured at the slit lamp. The difference in epithelial wound area between compound I and Vehicle was not noticeably different at any time point except at Day 2 post-PRK surgery (all p-values for the difference in area was >0.35). On Day 2 (24 hours post-operative), the difference in average epithelial defect area between patients treated with compound I vs. Vehicle was 11.23 mm2 (p value=0.034). This difference was not clinically significant in the immediate post-operative period. […]
# [3] = across the scheduled time points
compound,measurement,setting,value
"CC(C)c1nc2cc(O)ccc2c(=O)n1-c1ccc(C#N)cc1 [Compound I, 4-(7-hydroxy-2-isopropyl-4-oxo-4H-quinazolin-3-yl)-benzonitrile]","Ocular hyperemia (McMonnies scale) grade 4, compound I vs Vehicle treated eyes",[1]; Day 2 postoperatively (24 hours after PRK surgery),less grade 4 hyperemia (all quadrants); also recorded: Fewer compound I-treated eyes showed severe conjunctival hyperemia
same,"Ocular hyperemia (McMonnies scale) grade 3, compound I vs Vehicle treated eyes",[1]; Day 3 (48 hours post-operative),less grade 3 hyperemia
same,Dilated fundus exam,[1]; [3],No abnormal findings
same,"Slit-lamp biomicroscopy: aqueous flare and inflammatory cell grade, iris/anterior chamber, lens",[1]; [3],No abnormalities were observed
same,"Changes in BCVA, IOP, slit-lamp biomicroscopy, dilated eye exam, blink rate, tear production, corneal staining, vital signs compared to Vehicle",[1]; after compound I administration,no clinically relevant changes
same,"Vital sign parameters (blood pressures, pulse rate, body temperature)",[1]; all patients during the study,within the normal range
same,Increase in mean IOP values compared to Baseline,[1]; at the end of study,< 5 mmHg
same,"Corneal staining, compound I versus Vehicle","[1]; baseline, Day 8, EOS visit",No clinical differences were observed
same,"Best-corrected visual acuity (BCVA) and uncorrected visual acuity (UCVA), compound I vs Vehicle-treated eyes",[1]; throughout the study,did not result in any trend or obvious difference
same,"Blink rate, compound I vs Vehicle treatment",[1]; throughout the study,no trend across the scheduled time points or obvious differences
same,"Intraocular pressure, compound I vs Vehicle-treated eyes",[1]; throughout the study,No trend across the scheduled time points or obvious differences
same,"Epithelial defect area, Difference compound I-Vehicle, mean (SD)",[2]; Day 1,2.98 (27.33) mm^2
same,"Epithelial defect size, Area, Raw mean (SD)",[2]; Day 1,220.15 (32.26) mm^2
same,"Epithelial defect area, Difference compound I-Vehicle, mean (SD)",[2]; Day 2,11.23 mm^2 and 11.23 (32.30) mm^2
same,"Epithelial defect size, Area, Raw mean (SD)",[2]; Day 2,83.02 (32.08) mm^2
same,"Epithelial defect area, Difference compound I-Vehicle, mean (SD)",[2]; Day 3,1.02 (8.78) mm^2
same,"Epithelial defect size, Area, Raw mean (SD)",[2]; Day 3,6.75 (12.66) mm^2
same,"Epithelial defect area, Difference compound I-Vehicle, mean (SD)",[2]; Day 4,0.31 (2.11) mm^2
same,"Epithelial defect size, Area, Raw mean (SD)",[2]; Day 4,0.39 (2.04) mm^2
same,"Epithelial defect area, Difference compound I-Vehicle, mean (SD)",[2]; Day 8,0.00 (0.00) mm^2
same,"Epithelial defect size, Area, Raw mean (SD)",[2]; Day 8,0.00 (0.00) mm^2
same,Wound healing compared to Vehicle,[2]; after PRK surgery,no delay in wound healing
